Paper PMC9745799, “Polymyxin Stereochemistry and Its Role in Antibacterial Activity and Outer Membrane Disruption” (ACS Infectious Diseases, 2022)
Positions of bridges follow the written chain, without caps; N, C: chain ends. Non-standard residues stand in square brackets, D forms with d. Residues, ends and D or L forms follow the SMILES beside them. Dab = NCC[C@H](N)C(=O)O

Tests used:
A. baumannii ATCC 19606 = type: cell-based; settings: A. baumannii ATCC 19606; CLSI microbroth dilution, CAMHB, 22 h, 37 °C, triplicate
Description: (§1) MICs of compounds were determined following CLSI guidelines using the microbroth dilution method in polypropylene plates. Selected Gram-negative bacterial strains (see Table S2 for strain sources) were taken from glycerol stocks and grown overnight on blood agar. Individual colonies were selected and grown in Tryptic Soy Broth (TSB) to an OD600 of 0.5. Compounds were diluted in Mueller Hinton Broth (MHB) supplemented with Mg^2+ and Ca^2+ at final concentrations of 12 and 20 mg/L, respectively (CAMHB). 50 μL was used for each well, and compounds were assessed in triplicates. Bacterial culture was diluted in CAMHB to 10^6 CFU/mL, yielding 5 × 10^5 CFU/mL upon addition of 50 μL of culture to 50 μL of compound solution. Positive and negative (sterility) controls were present on each plate. Plates were sealed with a semipermeable membrane and incubated for 22 h (A. baumannii) or 18 h (other strains) under shaking at 37 °C.

E. coli ATCC 25922 = type: cell-based; settings: E. coli ATCC 25922; CLSI microbroth dilution, CAMHB, 18 h, 37 °C, triplicate
Description: as §1

E. coli BW25113 = type: cell-based; settings: E. coli BW25113; CLSI microbroth dilution, CAMHB, 18 h, 37 °C, triplicate
Description: as §1

E. coli JW3594 (ΔwaaD) = type: cell-based; settings: truncated LPS, CLSI microbroth dilution, CAMHB, 18 h, 37 °C, triplicate
Description: as §1

E. coli JW3596 (ΔwaaC) = type: cell-based; settings: truncated LPS, CLSI microbroth dilution, CAMHB, 18 h, 37 °C, triplicate
Description: as §1

E. coli mcr-1 = type: cell-based; settings: CLSI microbroth dilution, CAMHB, 18 h, 37 °C, triplicate
Description: as §1

K. pneumoniae ATCC 13883 = type: cell-based; settings: K. pneumoniae ATCC 13883; CLSI microbroth dilution, CAMHB, 18 h, 37 °C, triplicate
Description: as §1

P. aeruginosa 2018-007 = type: cell-based; settings: P. aeruginosa 2018-007; CLSI microbroth dilution, CAMHB, 18 h, 37 °C, triplicate
Description: as §1

P. aeruginosa ATCC 10145 = type: cell-based; settings: P. aeruginosa ATCC 10145; CLSI microbroth dilution, CAMHB, 18 h, 37 °C, triplicate
Description: as §1

P. aeruginosa ATCC 27853 = type: cell-based; settings: P. aeruginosa ATCC 27853; CLSI microbroth dilution, CAMHB, 18 h, 37 °C, triplicate
Description: as §1

P. aeruginosa NRZ03961 = type: cell-based; settings: P. aeruginosa NRZ03961; CLSI microbroth dilution, CAMHB, 18 h, 37 °C, triplicate
Description: as §1

[1] = test system: polymyxin-resistant (mcr-1 positive) E. coli; experiment: microbe, parasite or virus in culture; type: cell-based; settings: E. coli mcr-1; combination with rifampicin; checkerboard, CAMHB, 18 h, 37 °C, OD600; FICI ≤ 0.5 indicates synergy
Description: (§2) Selected Gram-negative bacterial strains were taken from glycerol stocks and grown overnight on blood agar. A single colony was inoculated in TSB broth at 37 °C until an optical density of 0.5 at 600 nm (OD600) was reached. The bacterial suspension was diluted in freshly prepared CAMHB to 10^6 CFU/mL. Compounds were diluted along the plate, using 25 μL of CAMHB for each dilution. Antibiotic concentrations were prepared separately in a multiwell reservoir, including a control without antibiotic. Of each antibiotic stock, 25 μL was added to three columns to obtain triplicates for every condition. To each 50 μL containing well was then added 50 μL of the 10^6 CFU/mL bacterial suspension, and the plates were sealed with breathable seals. After incubation for 18 h at 37 °C while shaking, the seals were removed and the density of the bacterial suspensions was measured at 600 nm (OD600) using a Tecan Spark plate reader. The OD600 values were transformed to a 2D gradient with the negative control as the minimum and the positive control as the maximum. The FICI was calculated using the following equation: [drawing 1] with MSCant and MSCcomp indicating the optimal synergistic concentration of antibiotic and compound and MICant and MICcomp, the corresponding MICs of the individual compounds. An FICI ≤ 0.5 indicates synergy.[48]

[2] = test system: polymyxin-sensitive E. coli ATCC 25922; experiment: microbe, parasite or virus in culture; type: cell-based; settings: ATCC 25922, 18 h
Description: as §2

[3] = test system: E. coli ATCC 25922 (smooth LPS); experiment: NPN uptake assay (outer membrane disruption); type: cell-based; settings: NPN fluorescence after 1 h at RT, 5 mM HEPES pH 7.2 + 20 mM glucose, triplicates, result in words
Description: (§3) Bacteria were taken from glycerol stocks and grown in TSB overnight. Cultures were diluted either 50 or 100 times in Lysogeny Broth (LB) and grown at 37 °C to an OD600 of 0.5. Test compounds were prepared in HEPES buffer (5 mM, pH 7.2 + 20 mM glucose) and serially diluted (25 μL per well) on 1/2 the area of black 96-well plates with a transparent bottom. N-Phenyl-1-naphthylamine (NPN) was dissolved in acetone (0.5 mM) and diluted to 40 μM in HEPES buffer (5 mM, pH 7.2 + 20 mM glucose). 25 μL of the NPN solution was added to each well. The bacterial suspension was spin down (1000g, 10 min), and the remaining cell pellet was resuspended in half the original volume of HEPES buffer (5 mM, pH 7.2 + 20 mM glucose). 50 μL of bacterial suspension was added to each well. NPN fluorescence was measured after 1 h of incubation at RT with λex 355 ± 20 nm and λem 420 ± 20 nm. The measured fluorescence signal was corrected for NPN fluorescence in the absence of compounds (bacteria in buffer + NPN) and presented as relative fluorescence units (RFUs).

[4] = test system: E. coli BW25113 (rough LPS); experiment: NPN uptake assay (outer membrane disruption); type: cell-based; settings: NPN fluorescence after 1 h at RT, 5 mM HEPES pH 7.2 + 20 mM glucose, triplicates, result in words
Description: as §3

[5] = test system: LPS from E. coli (O55:B5); experiment: Isothermal titration calorimetry (ITC), LPS binding; settings: compound (1 mM) into LPS (20 µM), 20 mM HEPES pH 7, 37 °C, mean and SD of three experiments
Description: Stock solutions of LPS (10 mg/mL, 0.5 mM) were prepared in 20 mM HEPES at pH 7 by suspension, sonication, and temperature cycling between 4 and 60 °C and stored overnight prior to use. LPS from E. coli (O55:B5) was used. Lipopeptide solutions (1 mM in 20 mM HEPES, pH 7) were titrated into a suspension of LPS (0.020 mM) in the same buffer. Control titrations included the titration of peptide into buffer and buffer into the LPS suspension to determine the corresponding heat of dilution. All binding experiments were performed using a MicroCal PEAQ-ITC Automated microcalorimeter (Malvern Panalytical Ltd., Malvern, UK). The samples were equilibrated to 37 °C prior to measurement. The titrations were conducted at 37 °C under constant stirring at 750 rpm. Each experiment consisted of an initial injection of 0.3 μL followed by 25 separate injections of 1.5 μL into the sample cell of 200 μL. The time between each injection was 180 s, and the measurements were performed with the reference power set at 5 μcal s^–1 and the feedback mode set at “low”. For all calculations performed, an estimated molecular weight of 20 kDa for LPS was applied. The calorimetric data thus obtained were analyzed using MicroCal PEAQ-ITC Analysis Software Version 1.20 (Malvern Panalytical Ltd., Malvern, UK), where the integrated heat signal is corrected for the heat of dilution of the titrant.

Row | Compound | MIC (A. baumannii ATCC 19606) [µg/mL] | MIC (E. coli ATCC 25922) [µg/mL] | MIC (E. coli BW25113) [µg/mL] | MIC (E. coli JW3594 (ΔwaaD)) [µg/mL] | MIC (E. coli JW3596 (ΔwaaC)) [µg/mL] | MIC (E. coli mcr-1) [µg/mL] | MIC (K. pneumoniae ATCC 13883) [µg/mL] | MIC (P. aeruginosa 2018-007) [µg/mL] | MIC (P. aeruginosa ATCC 10145) [µg/mL] | MIC (P. aeruginosa ATCC 27853) [µg/mL] | MIC (P. aeruginosa NRZ03961) [µg/mL] | FICI [1] | MIC alone [2] [µg/mL] | OM disruption (NPN uptake) [3] | OM disruption (NPN uptake) [4] | ΔΔH, maximum enthalpy observed after subtraction of dilution control [5] [kcal/mol] | ΔG, fitted parameter for single site binding ([5]; one-site model) [kcal/mol] | ΔH, fitted parameter for single site binding ([5]; one-site model) [kcal/mol] | Kd ([5]; one-site model, read-out: KD, fitted parameter for single site binding) [µM]
1 | Polymyxin B sulfate [PmxB (commercial), reference compound] | 0.25 | 1 | 1 | 0.06 | 0.06 | 4 | 0.25 | 2 | 1 | 1 | 1 |  |  |  |  |  |  |  | 
2 | CC(C)C[C@@H]1NC(=O)[C@@H](Cc2ccccc2)NC(=O)[C@H](CCN)NC(=O)[C@@H](NC(=O)[C@H](CCN)NC(=O)[C@@H](N)[C@@H](C)O)CCNC(=O)[C@H]([C@@H](C)O)NC(=O)[C@H](CCN)NC(=O)[C@H](CCN)NC1=O [PMBN, polymyxin B nonapeptide, reference compound] (H-T[Dab][Dab][Dab][dF]L[Dab][Dab]T; lactam 3-C (inferred); N-terminus assumed) |  |  |  |  |  |  |  |  |  |  |  | ≤ 0.14 | ≥ 256 | potent OM disruption | potent OM disruption | -7.20 ± 0.19 | -7.24 ± 0.03 | -8.4 ± 0.25 | 8 ± 0.4
